Measurements: patent US20180066018A1, “CONFORMATIONALLY STABLE ANALOGS OF THE RESPONSE SELECTIVE C5A AGONIST EP67” (Board Of Regents Of The University Of Nebraska, priority 2015, published 2018)
“Also recorded” adds a separate entry of the source. Non-standard residues stand in square brackets, D forms with d. No end group written: not given here. NMeL = CN[C@@H](CC(C)C)C(=O)O; Aib = CC(C)(N)C(=O)O

Tests used:
human monocytes = experiment: Differentiation/maturation of human monocytes into macrophages in vitro (light microscopy); type: cell-based
Method: To assess the binding of EP67 analogs to APCs and subsequent biological activity on these cells, peptides were assayed for their ability to elicit the activation of monocytes in vitro and to drive the differentiation/maturation of human monocytes into macrophages and subsequently dendritic cells.
Briefly, monocytes were harvested from human peripheral blood mononuclear cells. The human monocytes were incubated at 37 degrees C. for 24 hrs in media the presence of PBS, 100 μg/ml of EP67, 100 μg/ml of EP144, and 100 μg/ml of EP145. The cells were also incubated with for 48 hrs with sEP67 as a control. The cells were then photographed under light microscopy at 20× or 40× magnification. […] Panels A-C & G are at 20× magnification and Panels D-E are at 40× magnification.

[1] = tested on: C5aR-bearing macrophages vs. C5aR-bearing neutrophils; experiment: Bioselectivity: cytokine release from macrophages vs. MPO release from neutrophils; type: cell-based; conditions: antilog[(−Δmacrophage)−(−Δneutrophil)], relative to C5a set at 1
Text: 2. Potency. Analog potency will be measured by half maximal effective concentration (EC50); i.e., the concentration of the analog to induce a response halfway between baseline and maximum effect. EC50 values for each analog be determined in two separate assays: cytokine release from macrophages and MPO release from neutrophils.
In macrophages, we will measure the release of the TH1 cytokines IL-6, TNFα, and INFγ in accordance to our previously published methods (Morgan et al. Enhancement of In Vivo and In Vitro Immune Functions by a Conformationally Biased, Response-Selective Agonist of Human C5a: Implications for a Novel Adjuvant in Vaccine Design. Vaccine 28:463-469, 2010; Morgan et al. A novel adjuvant for vaccine development in the aged. Vaccine 28:8275-8279, 2010). These cytokines are consistently released in readily measurable amounts from macrophages (as well as monocytes and dendritic cells) and will be representative of what we have seen with EP67 and consistent with the nature of the supporting data presented above. Briefly, macrophages will be incubated in the presence of various concentrations of analogs (10, 50, 100, 200 μg/ml) in standard cell culture conditions for 6, 12, and 24, hrs. […]
3. […] Analog selectivity for cytokine release from macrophages vs. MPO release from neutrophils will be determined by the following equation: […]

[2] = tested on: human and porcine monocytes; conditions: cited from earlier work
[3] = tested on: human and mouse macrophages; conditions: cited from earlier work
[4] = NMR (ROESY) determination of cis/trans conformer populations of the Met-Xaa peptide bond; type: physicochemical; conditions: in solution
Text: NMR spectroscopy is the best method for detection of cis/trans prolyl isomerization in a peptide. AAx-Pro cis/trans isomerization (where AAx is any adjacent amino acid residue) is detectable via two resonance frequencies in the NMR spectra per nuclear spin in the proximity of the isomerizing bond. Rotating-Frame NOE Spectroscopy (ROESY) was used to analyze EP67 (150 msec mixing time) in DMSO-d6. Characteristic NOE patterns readily discriminate the resonances arising from the cis and trans conformers allowing for specific assignments of each. Also, the relative populations of each conformer can be determined by integration of the separate peak volumes. Short ^1H-^1H distances (NOEs) between the alpha proton of AAx and the alpha proton of Pro are diagnostic of the cis AAx-Pro peptide bond. On the other hand, an observed NOE between the alpha proton of AAx and the delta protons of Pro are diagnostic of the trans AAx-Pro peptide bond.
where AA and AA′ are adjacent amino acids.
Analog peptides can be analyzed by NMR spectroscopy to verify structure and ascertain cis/trans conformer ratios of the Pro-substituted analogs. Special attention should be paid to the angles formed about α-carbon […]) and carbonyl carbon (Ψ and ω bonds) in the Met residue to the N-terminus of the substituted Pro residues. […]

[5] = 100 μg/ml, 37 degrees C., 24 hrs

M(MeL)RFPDaYKS (M[NMeL]RFPD[dA]YKS) [sEP67]
differentiation of human monocytes to macrophages (adhesion to substrate and flattening) (human monocytes; control peptide, 48 hrs): do not exhibit this phenotype

YSFKDM(dmP)(MeL)aR (YSFKDMXLAR; 5,5'-dimethylproline, N-methyl-Leu, D-Ala; MOD_RES (7)..(7) Xaa is 5,5′-dimethylproline; MOD_RES (8)..(8) N-methyl Leu; MOD_RES (9)..(9) D-Ala) [EP145, EP67 analog with Pro substituted with 5,5′-dimethylproline]
differentiation of human monocytes to macrophages (adhesion to substrate and flattening) (human monocytes; [5]): drive the differentiation of human monocytes to macrophages; also recorded: monocytes mature into macrophages

Tyr-Ser-Phe-Lys-Asp-Met-Pro-(MethylLeu)-D-Ala-Arg (YSFKDMP[NMeL][dA]R) [EP67]
selectivity factor for macrophage activity over that of neutrophils [1]: 2951 | necrosis and apoptosis of the macrophages/dendritic cells once generated [2]: decreases necrosis and apoptosis | differentiation of monocytes to macrophages and dendritic cells ([2]; human and porcine monocytes): induces the differentiation of human and porcine monocytes to macrophages and dendritic cells | release of Th1 cytokines (IL-1β, IL-6, IL-8, IL-12, TNFα, IFNγ) [3]: induces the release of T helper type 1 (Th1) cytokines | release of Th2 cytokines (IL-2, IL-4, IL-5, IL-10) [3]: few T helper type 2 (Th2) cytokines | differentiation of human monocytes to macrophages (adhesion to substrate and flattening) (human monocytes; [5]): monocytes mature into macrophages

YSFKDM(Aib)LaR (YSFKDM[Aib]L[dA]R-OH) [EP144, EP67 analog with Pro substituted with 2-aminoisobutyric acid and MeL with Leu]
cis:trans conformer ratio [4]: all-trans | differentiation of human monocytes to macrophages (adhesion to substrate and flattening) (human monocytes; [5]): drive the differentiation of human monocytes to macrophages; also recorded: monocytes mature into macrophages

B1: C5a: short (74 residues in human) glycoprotein generated by enzymatic cleavage of complement C5 (protein, UniProt P01031 678-751, looked up)
C5a anaphylatoxin: TLQKKIEEIAAKYKHSVVKKCCYDGACVNNDETCEQRAARISLGPRCIKAFTECCVVASQLRANISHKDMQLGR
modifications: C5a anaphylatoxin
notes: short (74 residues in human) glycoprotein generated by enzymatic cleavage of complement C5
selectivity factor for macrophage activity over that of neutrophils [1]: 1
